Test results from PubChem BioAssay (NCI).
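Values below derive from 48-hour exposures of cells grown in 96-well plates, with endpoints linearly interpolated between the two concentrations bracketing the appropriate inhibition level. Here, GI50 denotes the concentration required for 50% inhibition of growth. Definition used: TGI = concentration required for complete inhibition of growth.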 Where a SMILES comes first, the peptide text is derived from it. The star is where a group is joined. Bn = c1ccc(C*)cc1

Assays:
Assay in all cases: NCI anticancer screen, dose series, 48 h
PC-3 prostate = test system: PC-3 prostate
HCT-116 colon = test system: HCT-116 colon
SK-MEL-28 melanoma = test system: SK-MEL-28 melanoma
DU-145 prostate = test system: DU-145 prostate
MOLT-4 leukemia = test system: MOLT-4 leukemia
KM12 colon = test system: KM12 colon
OVCAR-4 ovarian = test system: OVCAR-4 ovarian
HOP-92 NSCLC = test system: HOP-92 NSCLC
EKVX NSCLC = test system: EKVX NSCLC
NCI-H522 lung = test system: NCI-H522 lung

Structure (SMILES)	TGI (PC-3 prostate)	TGI (HCT-116 colon)	TGI (SK-MEL-28 melanoma)	TGI (DU-145 prostate)	TGI (MOLT-4 leukemia)	TGI (KM12 colon)	TGI (OVCAR-4 ovarian)	TGI (HOP-92 NSCLC)	TGI (EKVX NSCLC)	TGI (NCI-H522 lung)	GI50 (HCT-116 colon)	GI50 (SK-MEL-28 melanoma)	GI50 (MOLT-4 leukemia)	GI50 (OVCAR-4 ovarian)	GI50 (HOP-92 NSCLC)	GI50 (EKVX NSCLC)
Nc1nc(Nc2ccccc2)sc1C(=O)c1c[nH]c2ccccc12	25.3 µM	19.5 µM	26.3 µM	22.5 µM	25.8 µM	24.4 µM	23.5 µM	33.2 µM	27.4 µM							
Clc1ccc(Cl)c(SCCCN2CCNCC2)c1	29.7 µM	41.5 µM	26.9 µM	36 µM	40.6 µM	86.1 µM	47.9 µM	32.6 µM	34.7 µM	34 µM						
CCOC(=O)[C@@H]1ON2O[C@@H](OC3CCCC3(c3ccccc3)c3ccccc3)C[C@H]3OC(=O)[C@@H]1C32 (some centres not stated)		> 100 µM		55.6 µM	> 100 µM	29 µM		> 100 µM	> 100 µM	91.9 µM						
COC(=O)C(CC(C)C)NC(=O)C(N)Cc1ccc(OCc2ccccc2)cc1 (configuration not stated) (H-Tyr(Bn)-Leu-OMe; configuration not given here)	> 10 µM	> 10 µM	> 10 µM	> 10 µM	> 10 µM	> 10 µM	> 10 µM	> 10 µM	> 10 µM	> 10 µM						
O=C([CH-]C(=O)c1ccccc1)c1ccccc1.O=C([CH-]C(=O)c1ccccc1)c1ccccc1.[O]=[U+2]=[O]		15.9 µM	19.9 µM		27.3 µM		14 µM	6.18 µM	> 100 µM		2.99 µM	3.49 µM	2.57 µM	2.42 µM	2.9 µM	4.78 µM
NC(=O)c1ncn2c1NC(=O)CC2		> 100 µM	> 100 µM		> 100 µM	> 100 µM	> 100 µM	> 100 µM	> 100 µM	> 100 µM						
O=C(O)c1c2c(cc3c1CC1(Cc4ccccc4C1=O)C3)CCC2 (configuration not stated)	> 100 µM	> 100 µM	> 100 µM	> 100 µM	36 µM	> 100 µM	> 100 µM	> 91.6 µM	> 100 µM	64.5 µM						
O=C(CCc1cccc(O)c1)NCCCNC(=O)CCc1cccc(O)c1	> 100 µM	> 100 µM	> 100 µM	> 100 µM	> 100 µM	> 100 µM	> 100 µM	> 100 µM	> 100 µM	> 100 µM						
N#CCCN(CCC#N)c1ccc(/C=C2\SC(=S)NC2=O)cc1Br	> 100 µM	> 100 µM	> 100 µM	> 100 µM	> 100 µM	> 100 µM	> 100 µM	> 100 µM	> 100 µM	> 100 µM						
O=C1c2cccc(NCCNCCO)c2C(=O)c2cccc(NCCNCCO)c21	3.02 µM	4.77 µM	5.88 µM	5.91 µM	6.3 µM	4.48 µM	2.49 µM	2.9 µM	4.84 µM	1.66 µM						
C[C@]1(S(=O)(=O)c2ccccc2)C[C@H]2N(Cc3ccccc3)[C@@H]1CCC21OCCO1	> 100 µM	> 100 µM	> 100 µM	> 100 µM	> 100 µM	> 100 µM	> 100 µM	> 100 µM	> 100 µM	> 100 µM						
Cc1cc(/N=C/c2ccc(C#N)cc2)n(-c2ccccc2)n1	> 100 µM	> 100 µM	> 100 µM	> 100 µM	> 100 µM	> 100 µM	> 100 µM	> 100 µM	> 100 µM	> 100 µM						
CC(C)(C)C(=O)C(Cc1ccccc1)C(=O)C(C)(C)C	> 100 µM	> 100 µM	> 100 µM	> 100 µM	> 100 µM	> 100 µM	> 100 µM	> 100 µM	> 100 µM	> 100 µM						
CCCCC#CS(=O)(=O)C(F)(F)F		> 100 µM	> 100 µM		> 100 µM	> 100 µM	98.9 µM	> 84.4 µM	> 100 µM	> 100 µM						
Cc1cn2c(C)csc2c1P(=O)(OC(C)C)OC(C)C	> 100 µM	> 100 µM	> 100 µM	> 100 µM	> 100 µM	> 100 µM	> 100 µM	> 100 µM	> 100 µM	> 100 µM						
N#CC(=N)c1ncn(-c2ccccc2N)c1N	> 100 µM	> 100 µM	> 100 µM	> 100 µM	> 100 µM	> 100 µM	> 100 µM		> 100 µM	> 100 µM						
OCC(O)C(O)C(O)/C=N/Nc1nc(O)c(/C=C2\C=Nc3ccccc32)[nH]1 (configuration not stated)		> 100 µM	> 100 µM	> 100 µM	> 100 µM	> 100 µM	> 100 µM	> 100 µM	> 100 µM	> 100 µM						
O=C1CC(Sc2nc3ccc(I)cc3c(=O)n2Cc2ccccc2)C(=O)NN1 (configuration not stated)	30.7 µM	29.1 µM	31.7 µM	34.8 µM	42.6 µM	38.8 µM	36.8 µM	37.2 µM	31.8 µM	4.26 µM						
O=C(CNCc1ccccc1)Oc1c(Cl)c(Cl)c(Cl)c(Cl)c1Cl	48.1 µM	> 100 µM	> 100 µM	44.3 µM	50.6 µM	51.1 µM	> 100 µM		48.7 µM	75.9 µM						
O=c1n(Cc2ccccc2)c(=O)n2c(=O)n(Cc3ccccc3)c(=O)n12		> 100 µM	> 100 µM	> 100 µM		> 100 µM	> 100 µM	> 100 µM		> 100 µM						
CCCCC/C(C=O)=C\c1ccccc1	> 100 µM	> 100 µM	> 100 µM	> 100 µM	> 100 µM	> 100 µM	> 100 µM	> 100 µM	> 100 µM							
